Measured values published in patent publication US5122368A, “Anthracycline conjugates having a novel linker and methods for their production” (Bristol-Myers Squibb Company, priority 1989, dated 1992).
Where “and” joins values, the source holds several entries; their conditions need not be identical. Equal values may be shown once. Where a name gives a salt, the structure may show the parent alone. Read-outs that look alike come from different tables or passages of the source.

Assays:
[1] = for % Deaths / D/T, # Deaths/Total Treated: Daudi or Ramos bearing mice
[2] = tested on: Daudi tumor xenografts; experiment: In vivo anti-tumor activity on Daudi tumor xenografts; settings: for anti-tumor activity: Q5D×2 (days 20 and 25), 4.1 mg/kg/inj ADM and/or 630 mg/kg/inj 5E9
[3] = tested on: Ramos tumor xenografts; experiment: In vivo anti-tumor activity on Ramos tumor xenografts; set-up: species or system BALB/c nude mice; settings: Q7D×3, i.v. (title: Q1D×1; i.v.)
[4] = N=1, Q1D×1, i.v., ADM 14 mg/kg/inj, cumulative 14
[5] = N=1, Q2D×2, i.v., ADM 8 mg/kg/inj, cumulative 16
[6] = N=1, Q2D×2, i.v., ADM 10 mg/kg/inj, cumulative 20
[7] = N=1, Q2D×2, i.v., ADM 15 mg/kg/inj, cumulative 30
[8] = N=1, Q3D×2, i.v., ADM 12 mg/kg/inj, cumulative 24
[9] = N=1, Q3D×2, i.v., ADM 14 mg/kg/inj, cumulative 28
[10] = N=1, Q3D×2, i.v., ADM 16 mg/kg/inj, cumulative 32
[11] = N=1, Q4D×2, i.v., ADM 10 mg/kg/inj, cumulative 20
[12] = N=1, Q4D×2, i.v., ADM 14 mg/kg/inj, cumulative 28
[13] = N=1, Q4D×3, i.p., ADM 5 mg/kg/inj, cumulative 15
[14] = N=1, Q5D×2, i.p., ADM 4.1 mg/kg/inj, cumulative 8.2
[15] = N=1, Q5D×2, i.p., ADM 5.5 mg/kg/inj, cumulative 11
[16] = N=1, Q7D×3, i.v., ADM 12 mg/kg/inj, cumulative 36
[17] = N=1, Q8D×2, i.p., ADM 5 mg/kg/inj, cumulative 10
[18] = N=1, Q8D×2, i.p., ADM 10 mg/kg/inj, cumulative 20
[19] = N=1, Q8D×2, i.p., ADM 13 mg/kg/inj, cumulative 26
[20] = N=2, Q2D×2, i.v., ADM 12 mg/kg/inj, cumulative 24
[21] = N=2, Q4D×2, i.v., ADM 12 mg/kg/inj, cumulative 24
[22] = N=3, Q1D×1, i.v., ADM 16 mg/kg/inj, cumulative 16
[23] = N=3, Q7D×3, i.v., ADM 10 mg/kg/inj, cumulative 30
[24] = N=3, Q7D×3, i.v., ADM 11 mg/kg/inj, cumulative 33
[25] = N=4 experiments, Q1D×1, i.v., ADM 18 mg/kg/inj, cumulative 18
[26] = Daudi-bearing mice, 5 mg/kg/inj, cum 10, Q8D×2, i.p.
[27] = Daudi-bearing mice, 5 mg/kg/inj, cum 15, Q4D×3, i.p.
[28] = Daudi-bearing mice, 5 mg/kg/inj, cum 15, Q7D×3, i.p.
[29] = Daudi-bearing mice, 5 mg/kg/inj, cum 15, Q7D×3, i.v.
[30] = Daudi-bearing mice, 10 mg/kg/inj, cum 30, Q7D×3, i.p.
[31] = Daudi-bearing mice, 11 mg/kg/inj, cum 33, Q7D×3, i.v., hydrochloride, 11 mg/kg
[32] = Daudi-bearing mice, 12 mg/kg/inj, cum 12, Q1D×1, i.v.
[33] = Daudi-bearing mice, 13 mg/kg/inj, cum 26, Q8D×2, i.p.
[34] = Daudi-bearing mice, 15 mg/kg/inj, cum 15, Q1D×1, i.v.
[35] = Daudi-bearing mice, 18 mg/kg/inj, cum 18, Q1D×1, i.v.
[36] = Daudi-bearing mice, 20 mg/kg/inj, cum 20, Q1D×1, i.v.
[37] = Ramos-bearing mice, 16 mg/kg/inj, Q7D×3, i.v. (title: Q1D×1; i.v.)
[38] = Ramos-bearing mice, 18 mg/kg/inj, Q7D×3, i.v. (title: Q1D×1; i.v.)
[39] = 4.1 mg/kg/inj, cum 8.2, Q5D×2, i.p.
[40] = 4.5 mg/kg/inj, cum 9, Q5D×2, i.p.
[41] = 5 mg/kg/inj, cum 15, Q7D×3, i.v.
[42] = 5.5 mg/kg/inj, cum 11, Q5D×2, i.p.
[43] = 9 mg/kg/inj, cum 27, Q7D×3, i.v.
[44] = 11 mg/kg/inj, cum 33, Q7D×3, i.v., hydrochloride
[45] = 12 mg/kg/inj, cum 36, Q7D×3, i.v., hydrochloride

In the case of `COc1cccc2c1C(=O)c1c(O)c3c(c(O)c1C2=O)C[C@@](O)(C(=O)CO)C[C@@H]3O[C@H]1C[C@H](N)[C@H](O)[C@H](C)O1` [ADM-HCl, adriamycin hydrochloride], the “% Deaths” value [1, 4] is reported as 0%, the “D/T, # Deaths/Total Treated” value [1, 4] is reported as 0/8 and the “% Deaths” value [1, 5] is reported as 20%. The “D/T, # Deaths/Total Treated” value [1, 5] was 1/5, the “% Deaths” value [1, 6] was 60% and the “D/T, # Deaths/Total Treated” value [1, 6] was 3/5. For the same compound, the “% Deaths” value [1, 7] was 100%, the “D/T, # Deaths/Total Treated” value [1, 7] was 7/7 and the “% Deaths” value [1, 8] was 75%. The “D/T, # Deaths/Total Treated” value [1, 8] was 6/8, the “% Deaths” value [1, 9] was 88% and the “D/T, # Deaths/Total Treated” value [1, 9] was 7/8. For the same compound, the “% Deaths” value [1, 10] was 100%, the “D/T, # Deaths/Total Treated” value [1, 10] was 8/8 and the “% Deaths” value [1, 11] was 25%. For the same compound, the “D/T, # Deaths/Total Treated” value [1, 11] was 2/8, the “% Deaths” value [1, 12] was 86% and the “D/T, # Deaths/Total Treated” value [1, 12] was 6/7. The “% Deaths” value [1, 13] was 67%, the “D/T, # Deaths/Total Treated” value [1, 13] was 6/9 and the “% Deaths” value [1, 14] was 20%. The “D/T, # Deaths/Total Treated” value [1, 14] was 1/5, the “% Deaths” value [1, 15] was 0% and the “D/T, # Deaths/Total Treated” value [1, 15] was 0/8. For the same compound, the “% Deaths” value [1, 16] was 50%, the “D/T, # Deaths/Total Treated” value [1, 16] was 4/8 and the “% Deaths” value [1, 17] was 38%. For the same compound, the “D/T, # Deaths/Total Treated” value [1, 17] was 3/8, the “% Deaths” value [1, 18] was 100% and the “D/T, # Deaths/Total Treated” value [1, 18] was 8/8. The “% Deaths” value [1, 19] was 100%, the “D/T, # Deaths/Total Treated” value [1, 19] was 7/7 and the “% Deaths” value [1, 20] was 83%. The “D/T, # Deaths/Total Treated” value [1, 20] was 10/12, the “% Deaths” value [1, 21] was 47% and the “D/T, # Deaths/Total Treated” value [1, 21] was 7/15. For the same compound, the “% Deaths” value [1, 22] was 10%, the “D/T, # Deaths/Total Treated” value [1, 22] was 3/31 and the “% Deaths” value [1, 23] was 0%. The “D/T, # Deaths/Total Treated” value [1, 23] was 0/24, the “% Deaths” value [1, 24] was 15% and the “D/T, # Deaths/Total Treated” value [1, 24] was 4/26. For the same compound, the “% Deaths” value [1, 25] was 44%, the “D/T, # Deaths/Total Treated” value [1, 25] was 14/32 and the “D/T, deaths/total animals” value ([1]; Daudi-bearing mice, 4.1 mg/kg/inj, cum 8.2, Q5D×2, i.p.) was 1/5. The “D/T, deaths/total animals” value ([1]; Daudi-bearing mice, 4.5 mg/kg/inj, cum 9, Q5D×2, i.p., hydrochloride, 4.5 mg/kg) was 0/5 and 0/8, the “D/T, deaths/total animals” value [1, 26] was 3/8 and the “Toxicity (%), deaths” value [1, 26] was 37%. The “D/T, deaths/total animals” value [1, 27] was 6/9, the “Toxicity (%), deaths” value [1, 27] was 67% and the “D/T, deaths/total animals” value [1, 28] was 6/9. For the same compound, the “Toxicity (%), deaths” value [1, 28] was 67%, the “D/T, deaths/total animals” value [1, 29] was 1/9 and the “Toxicity (%), deaths” value [1, 29] was 11%. The “D/T, deaths/total animals” value ([1]; Daudi-bearing mice, 5.5 mg/kg/inj, cum 11, Q5D×2, i.p.) was 0/8, the “D/T, deaths/total animals” value ([1]; Daudi-bearing mice, 9 mg/kg/inj, cum 27, Q7D×3, i.v.) was 0/10 and the “D/T, deaths/total animals” value ([1]; Daudi-bearing mice, 10 mg/kg/inj, cum 20, Q8D×2, i.p.) was 8/8. The “D/T, deaths/total animals” value [1, 30] was 8/8, the “Toxicity (%), deaths” value [1, 30] was 100% and the “D/T, deaths/total animals” value ([1]; Daudi-bearing mice, 10 mg/kg/inj, cum 30, Q7D×3, i.v., hydrochloride, 10 mg/kg) was 0/8 and 0/7. For the same compound, the “D/T, deaths/total animals” value [1, 31] was 2/8 and 2/10 and 0/8, the “Toxicity (%), deaths” value [1, 31] was 25% and 20% and the “D/T, deaths/total animals” value [1, 32] was 7/7. The “Toxicity (%), deaths” value [1, 32] was 100%, the “Toxicity (%), deaths” value ([1]; Daudi-bearing mice, 12 mg/kg/inj, cum 36, Q7D×3, i.v.) was 50% and the “D/T, deaths/total animals” value ([1]; Daudi-bearing mice, 12 mg/kg/inj, cum 36, Q7D×3, i.v., hydrochloride, 12 mg/kg) was 4/8 and 2/8. For the same compound, the “D/T, deaths/total animals” value [1, 33] was 7/7, the “Toxicity (%), deaths” value [1, 33] was 100% and the “D/T, deaths/total animals” value [1, 34] was 7/7. For the same compound, the “Toxicity (%), deaths” value [1, 34] was 100%, the “D/T, deaths/total animals” value [1, 35] was 6/8 and the “Toxicity (%), deaths” value [1, 35] was 75%. The “D/T, deaths/total animals” value [1, 36] was 7/7, the “Toxicity (%), deaths” value [1, 36] was 100% and the “MTD (maximum tolerated dose)” value ([1]; Q7D×3, i.v.) was 11 mg/kg/inj. For the same compound, the “D/T, deaths/total animals” value [1, 37] was 1/8, the “Toxicity (%), deaths (lethality)” value [1, 37] was 12% and the “D/T, deaths/total animals” value [1, 38] was 2/8. For the same compound, the “Toxicity (%), deaths (lethality)” value [1, 38] was 25%, the “MTD (maximum tolerated dose)” value ([1]; i.p.) was 4-5 mg/kg/inj and the “CR, complete regressions” value [2, 39] was 0. For the same compound, the Cures [2, 39] was 0, the “T-C, delay to reach 3000 mm^3 vs untreated controls” value (from here on “T-C, delay … vs untreated controls”) [2, 39] was 0 days and the “TDD, tumor doubling delay” value [2, 39] was 0. For the same compound, the “CR, complete regressions” value [2, 40] was 0, the Cures [2, 40] was 0 and the “T-C, delay … vs untreated controls” value [2, 40] was 2.2 days. The “CR, complete regressions” value [2, 41] was 2, the Cures [2, 41] was 0 and the “T-C, delay … vs untreated controls” value [2, 41] was 6.2 days. For the same compound, the “TDD, tumor doubling delay” value [2, 41] was 0.18, the “CR, complete regressions” value [2, 42] was 0 and the Cures [2, 42] was 0. For the same compound, the “T-C, delay … vs untreated controls” value [2, 42] was 2.2 days, the “TDD, tumor doubling delay” value [2, 42] was “.1” and the “CR, complete regressions” value [2, 43] was 0. The Cures [2, 43] was 1, the “T-C, delay … vs untreated controls” value [2, 43] was 23 days and the “TDD, tumor doubling delay” value [2, 43] was 0.9. The “CR, complete regressions” value ([2]; 10 mg/kg/inj, cum 30, Q7D×3, i.v.) was 0, the “TDD, tumor doubling delay” value ([2]; 10 mg/kg/inj, cum 30, Q7D×3, i.v., hydrochloride) was 0.7 and 0.8 and the “T-C, delay … vs untreated controls” value [2, 44] was 28 days and > 42 days and 21 days. For the same compound, the “TDD, tumor doubling delay” value [2, 44] was 1.1 and > 1.3 and 0.7 and > 1.1, the Cures ([2]; 12 mg/kg/inj, cum 36, Q7D×3, i.v.) was 3 and the “T-C, delay … vs untreated controls” value [2, 45] was > 62 days and > 33 days. For the same compound, the “TDD, tumor doubling delay” value [2, 45] was > 2.0 and > 1.5, the “anti-tumor activity” value ([2]; i.p., hydrochloride) was “no anti-tumor activity” and the “anti-tumor activity” value ([2]; i.p., listed as ADM, hydrochloride) was “inactive”. The “growth inhibition of Daudi tumor xenografts” value ([2]; Q7D×3, i.v., 9, 10 or 11 mg/kg/injection) was “significantly inhibited in a dose dependent fashion”, the “anti-tumor activity at MTD” value ([2]; i.p. route, MTD) was “inactive” and the “CR, complete regressions” value ([3]; 16 mg/kg/inj) was 0. For the same compound, the Cures ([3]; 16 mg/kg/inj) was 0, the “T-C, delay … vs untreated controls” value ([3]; 16 mg/kg/inj) was 5 days and the “TDD, tumor doubling delay” value ([3]; 16 mg/kg/inj) was 0.3. The “CR, complete regressions” value ([3]; 18 mg/kg/inj) was 0, the Cures ([3]; 18 mg/kg/inj) was 0 and the “T-C, delay … vs untreated controls” value ([3]; 18 mg/kg/inj) was 8 days. The “TDD, tumor doubling delay” value ([3]; 18 mg/kg/inj) was 0.5.
